Series [1] deals with T1, hCB1R (Homo sapiens, UniProt P21554). Nature of the series: cell-based. Particulars: Table 1; mean ± SD; read-out: EC50 hCB1R (cAMP assay).
The nature of series [2]: Solubility (Table 1). It is filed as physicochemical. The settings on record: thermodynamic from solid. As for the experimental part: (§1) For the determination of the octanol/water distribution coefficient (logD), the carrier-mediated distribution system (CAMDIS)-assay was used as described elsewhere.[38] Kinetic and thermodynamic solubilities were assessed using the lyophilization solubility assay (LYSA) and thermodynamic solubility assay (THESA), respectively. For the LYSA, the solubility of RNB- 61 in phosphate buffer at pH 6.5 from an evaporated 10 mM DMSO compound stock solution was measured. Two aliquots of the test compounds were dried and dissolved in phosphate buffer at pH 6.5. The solutions were then filtered and diluted (3 different dilution levels for each compound) before high throughput mass spectrometry (MS) analysis was performed in an Agilent RapidFire system. Each test compound was quantified using a 6-point calibration curve prepared with the same DMSO starting solution. For THESA, RNB-61 (8.6 mg per mL solvent/vehicle) was stirred in HPLC vials (9 × 12 × 32 mm, Waters) at 350 rpm for 15 h. The presence of solid particles was determined by microscopic analysis of 10 μL samples. If the active pharmacological ingredient (API) was completely dissolved, more solid API was added before stirring for another 15 h. This step was repeated for up to 96 h or until residual solid particles could be detected. Samples (0.5 mL) were transferred to Eppendorf Ultrafree filter tubes (Filter: PVDF 0.22 μm) and centrifuged at 14,500 rpm for 10 min. The filtrates were diluted in ethanol and analyzed by ultra-performance liquid chromatography (UPLC). Measurements were repeated in 0.05 M aqueous phosphate buffer and in fasted (FaSSIF) and fed (FeSSIF) simulated gastrointestinal fluids.

The nature of series [3]: Octanol/water distribution coefficient (logD), CAMDIS assay. The settings on record: octanol/water; read-out: logD. It is filed as physicochemical. The protocol: as §1
The nature of series [4]: Parallel artificial membrane permeability (PAMPA) assay. It is filed as in vitro ADME. The settings on record: PAMPA, Table 1; read-out: PAMPA Peff. As for the experimental part: The general permeability of the compound was assessed using the parallel artificial membrane permeability (PAMPA) assay and the permeability-glycoprotein (P-gp) assay was used to specifically test for brain penetration. PAMPA data were generated as previously reported by our group.[44] The P-gp assay, which evaluates the brain penetration of test compounds, was performed as described elsewhere.[45] Briefly, transfected porcine kidney epithelial (LLC-PK1) cells expressing human or mouse P-gp were cultured on 96-well semipermeable filter membrane plates (Millipore, Darmstadt, Germany). Cells formed a polarized monolayer with tight junctions that acted as a barrier between apical and basolateral compartments. P-gp was expressed in the apical-facing membrane of the monolayer (tightness confirmed using Lucifer yellow). To determine the unidirectional permeability (Papp) of RNB-61, samples were added separately to the apical (for A > B Papp) and basolateral (for B > A Papp) sides of the cell monolayer (i.e., donor compartments), and RNB-61 movement into the respective receiver compartments was measured by LC-MS/MS over a 3 h incubation at 37 °C. The effect of P-gp was measured by expressing the efflux ratio of the unidirectional A > B and B > A Papp values. The mean permeability (A > B and B > A Papp) was determined in the absence of P-gp via the addition of the selective P-gp inhibitor, tariquidar.
A general note: The PAMPA barrier holds no transporters, so it reflects passive diffusion.

Series [5] in a line: Microsomal clearance. It is filed as in vitro ADME. The settings on record: human, human microsomes; Table 1.
Series [6] in a line: Microsomal clearance. It is filed as in vitro ADME. Particulars: rat, rat microsomes, Table 1.
Series [7] has as its target human wild type CB2R (Homo sapiens, UniProt P34972). Nature of the series: cAMP assay in CHO cells. It is filed as cell-based. Details: expressed in transfected cells; host or cells: CHO cells.
Series [8] has as its target human CB2R (Homo sapiens, UniProt P34972). Nature of the series: Competition binding assay with [3H]-CP55940, HEK cell membranes. Particulars: for hCB2R selectivity: Ki hCB1R over Ki hCB2R.
Protocol: (§3) Competition and saturation binding assays were performed using the radiolabeled CB1R/CB2R agonist [^3H]-CP55940 (PerkinElmer).
(§4) Binding reactions were terminated by vacuum filtration onto 0.5% polyethylenimine presoaked GF/B filter plates (Packard) using a Filtermate cell harvester followed by 6 brief washes with 0.3 mL/well of ice-cold wash buffer. Wash buffer comprising 50 mmol L^–1 Tris- HCl, 5 mmol L^–1 MgCl2, 2.5 mmol L^–1 EDTA, and 0.5% fatty acid-free BSA, pH 7.4. Plates were dried at 50 °C for 1 h and liquid scintillation counting was used to determine levels of bound radiolabel. IC50 values and Hill slopes were determined with a 4-parameter logistic model using ActivityBase (ID Business Solution, Guilford, UK) and pKi values were determined using the Cheng–Prusoff equation as shown below: [drawing 1] where S indicates the concentration of the substrate and Km depicts the affinity constant of the substrate.
In series [9] the target is T1, hCB1R. The series is described as above.
Protocol: as §3, §4
In series [10] the test system is renal I/R-induced acute kidney injury. Nature of the series: Ischemia/reperfusion (I/R) model of acute kidney injury. It is filed as in vivo, C57BL/6 mice. The protocol:
(§2) In the ischemia/reperfusion (I/R) model of acute kidney injury (AKI),[47],[48] the compounds were administered orally by gavage to C57BL/6 mice 30 min before ischemia obtained by clamping both renal arteries and veins for 25 min, followed by 24 h of reperfusion. Mice were anesthetized using xylazine (10 mg kg^–1)/ketamine (100 mg kg^–1) injected intraperitoneally. Sham treated mice were treated identically except for the temporary closure of the renal vessels. After 24 h, under reanesthesia, plasma was taken for biomarker analysis. Thereafter, mice still in deep anesthesia were sacrificed by cervical dislocation. Creatinine, BUN (blood urea nitrogen), NGAL (neutrophil gelatinase-associated lipocalin), osteopontin, and KIM1 (kidney injury molecule-1) levels were determined using the following commercially available standard assays: creatinine: Roche Diagnostics 03263991, BUN: Roche Diagnostics 04460715, NGAL: BioPorto, Kit046 + Kit042, osteopontin: R&D Systems, MOST00, KIM-1: Abnova, KA1064. To assess fibrotic effects, we used the unilateral ureteral obstruction (UOO) model in Sprague–Dawley rats.[49] For the UOO model, rats were sacrificed after 5, 8, and 11 days and the percentage of PicroSirius Red positive areas (indicator of collagen III–I deposition) were measured in 4 μm histological cross sections of the kidney after 2% paraformaldehyde perfusion fixation and paraffin embedding. The extend of kidney fibrosis was quantified based on PicroSirius Red staining of 10 renal sections about 1 mm apart from each kidney. The collagen–III-I-positive pixel counts were determined in the cortical aspect of each kidney section from 10 optical fields using a 40× objective. As the total area analyzed was identical for all kidneys under investigation, the absolute number of pixels was used as the relevant readout. Vehicle treated animals received saline gavage only. The details of PicroSirius Red staining were previously described.[22]

The test system of series [11] is UUO-induced kidney fibrosis. Nature of the series: Unilateral ureteral obstruction (UUO) model of kidney fibrosis. It is filed as in vivo, Sprague–Dawley rats. The settings on record: 32 mg kg^–1, day 5, time-course experiment. The protocol:
as §2

Series [12] has as its target T2, CB2R in wild-type rat spleen membranes (Rattus norvegicus, UniProt Q9QZN9).
T2 construct: from tissue; host or cells: rat spleen membranes
It is filed as binding. The settings on record: WT rat spleen membranes.

The mark [13] stands for this setting: Table 1, mean ± SD, read-out: EC50 hCB2R (cAMP assay).

In brackets after ≈: the same amount, converted by molar mass. Read-outs that look alike come from different tables or passages of the source.

The term EC50 denotes the concentration at which the effect is half-maximal. As a reminder, the solubility is how much of the substance goes into solution per volume. As usually defined, the logD is lipophilicity at a set pH, counting ionised and neutral species. Usually microsomal CLint stands for a measure of how fast metabolising enzymes remove a compound, apart from limits set by blood flow. Low readings indicate greater metabolic stability, high ones faster metabolism. For orientation: Ki means the dissociation constant of the complex between target and ligand, obtained from inhibition or displacement.

human wild type CB2R, sequence (P34972 whole entry): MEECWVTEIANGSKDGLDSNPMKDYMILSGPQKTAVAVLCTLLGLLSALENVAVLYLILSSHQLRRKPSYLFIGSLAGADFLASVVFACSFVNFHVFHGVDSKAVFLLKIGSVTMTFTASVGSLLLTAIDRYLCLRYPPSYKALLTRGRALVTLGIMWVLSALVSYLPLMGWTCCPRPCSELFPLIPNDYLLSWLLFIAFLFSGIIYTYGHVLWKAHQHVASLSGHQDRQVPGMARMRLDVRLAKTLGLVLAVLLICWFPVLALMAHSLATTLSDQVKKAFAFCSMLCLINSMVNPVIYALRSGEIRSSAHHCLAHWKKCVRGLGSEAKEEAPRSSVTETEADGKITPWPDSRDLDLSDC
human CB2R, sequence (P34972 whole entry): as above
T1 sequence (P21554 whole entry): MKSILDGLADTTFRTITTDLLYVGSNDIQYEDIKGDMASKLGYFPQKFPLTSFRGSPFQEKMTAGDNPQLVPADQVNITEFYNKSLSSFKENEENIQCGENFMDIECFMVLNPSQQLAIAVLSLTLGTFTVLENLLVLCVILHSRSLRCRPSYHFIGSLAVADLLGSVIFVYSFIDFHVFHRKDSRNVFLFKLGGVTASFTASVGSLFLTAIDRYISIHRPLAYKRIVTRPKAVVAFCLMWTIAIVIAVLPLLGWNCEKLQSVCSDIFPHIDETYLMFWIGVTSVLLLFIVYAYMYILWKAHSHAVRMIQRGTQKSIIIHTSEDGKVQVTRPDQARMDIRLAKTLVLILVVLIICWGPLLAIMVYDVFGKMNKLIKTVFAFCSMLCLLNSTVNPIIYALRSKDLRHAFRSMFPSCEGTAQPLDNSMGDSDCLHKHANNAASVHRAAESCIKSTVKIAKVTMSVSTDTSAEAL
T2 sequence (Q9QZN9 whole entry): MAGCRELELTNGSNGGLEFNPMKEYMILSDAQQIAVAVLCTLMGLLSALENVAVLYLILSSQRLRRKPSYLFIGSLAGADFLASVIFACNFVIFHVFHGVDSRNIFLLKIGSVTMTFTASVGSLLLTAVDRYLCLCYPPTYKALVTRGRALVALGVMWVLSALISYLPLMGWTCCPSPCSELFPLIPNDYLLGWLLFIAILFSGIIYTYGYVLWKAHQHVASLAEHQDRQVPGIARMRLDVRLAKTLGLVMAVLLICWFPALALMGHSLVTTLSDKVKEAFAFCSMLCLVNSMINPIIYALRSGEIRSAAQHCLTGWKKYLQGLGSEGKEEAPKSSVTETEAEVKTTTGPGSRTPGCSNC

With `CC(C)(Oc1ccc(C(F)(F)F)cn1)C(=O)Cc1cc(C(C)(C)C)no1` [RNB-90], the EC50 was found to be 19.6 ± 1.18 nM in series [1] and 0.26 ± 0.05 nM in series [7] (setting [13]). In addition, the solubility in series [2] was below 1 µg/mL. Further, the logD in [3] was 4.07. Also, the Papp in series [4] was determined as 2 ×10⁻⁶ cm/s. Further, the microsomal CLint worked out at 15 µL/min/mg in series [5] and 81 µL/min/mg in series [6]. Further, in [8], the hCB2R selectivity amounted to 307.

As for `N#Cc1cc(NC(=O)CCc2nc(-c3ccc(F)cc3Cl)no2)cnc1CC(F)(F)F` [RNB-73], the values for the EC50 in series [1] and in series [7] (setting [13]) were above 10000 nM and 7.13 ± 2.19 nM, respectively. In series [2], this compound yielded a solubility below 1 µg/mL. Further, in series [3], the logD was found to be 3.86. In series [4], the Papp was found to be 7.4 ×10⁻⁶ cm/s. Moreover, the microsomal CLint in series [5] and in series [6] was below 10 µL/min/mg throughout. This compound also showed a hCB2R selectivity in [8] above 153. Besides, the inhibitory constant (Ki) in series [9] is above 10000 nM.

Regarding `Oc1ccc(C2CNCCc3c2cc(O)c(O)c3Cl)cc1` (centres unmarked) [fenoldopam, reference compound], in [10] (20 mg kg^–1), the “reduction of BUN compared to vehicle” value was found to be 39% and the “reduction of plasma creatinine compared to vehicle” value was 55%.

As for `CN(C(=O)c1cc(C(F)(F)F)ccc1OCC(C)(C)O)c1cc(C(C)(C)C)nn1CC1CCC1` [regioisomer of RNB-61], in [8] (assay not specified), the “activity (data not shown)” value is “inactive”.

For the compound `CC1(C)CC(O)CC(C)(C)N1[O]` [tempol, reference compound], in [10] (50 mg kg^–1), the “reduction of BUN compared to vehicle” value is recorded as 26%, the “reduction of plasma KIM-1 compared to vehicle” value is given as 57%, the “reduction of plasma NGAL compared to vehicle” value was 43% and the “reduction of plasma creatinine compared to vehicle” value was found to be 35%. Besides, in series [10] (50 mg kg^–1), the “reduction of plasma osteopontin compared to vehicle” value turned out to be 49%.

For the compound `CCOC(=O)[C@H](CCc1ccccc1)N[C@@H](C)C(=O)N1CCC[C@H]1C(=O)O` [enalapril, reference compound], in series [11], the “collagen–III-I positive area vs vehicle” value is listed as “No significant difference”.

Regarding `Cc1c(C(=O)c2cccc3ccccc23)c2cccc3c2n1[C@H](CN1CCOCC1)CO3` [WIN55,212–2], the “reduction of [3H]-RNB-61 radioactivity” value in series [12] (competitor 10 μM) is reported as “significant reduction”.

For `CC1(C)C(C(=O)c2cn(CCN3CCOCC3)c3ccccc23)C1(C)C` [RNB-92], the concentration in solution in [2] (solubility) was 2 µg/mL (≈ 5.64 µM). Moreover, the logD in [3] came out at 3.43. Also, the microsomal CLint in [5] turned out to be 420 µL/min/mg; in series [6], 730 µL/min/mg. Also, the midpoint of the response in series [7], the EC50, lay at 0.17 ± 0.01 nM.

`COCCOCCc1cc(NC(=O)C(C)(C)S(=O)(=O)C2CCOCC2)on1` [RNB-70]: the EC50 in series [1] is above 10000 nM; in series [7] (setting [13]), 13 ± 2.58 nM. Besides, in [2], the solubility was above 510 µg/mL. The logD in [3] came to 0.8. In addition, the Papp in series [4] came out at 5.9 ×10⁻⁶ cm/s. The compound also yielded a microsomal CLint in series [5] below 10 µL/min/mg. In addition, the hCB2R selectivity in series [8] is above 559. The Ki in series [9] was above 10000 nM.

Take `Cc1c(C(=O)NN2CCCCC2)nn(-c2ccc(Cl)cc2Cl)c1-c1ccc(Cl)cc1` [SR1]: in [12] (competitor 1 μM), the “reduction of [3H]-RNB-61 radioactivity” value is reported as “did not result in a significant difference”.

The record behind these values is paper PMC11320734 (ACS Pharmacology & Translational Science, 2024).
